Key:
[1] = test system: relapsed and refractory CLL patients; test: Phase I dose escalation: clinical response and PFS; type: in vivo, human
tumor FDG uptake (SUV) = test: FDG PET/CT tumor metabolic response; type: in vivo, human; settings: Baseline vs Cycle 1 Day 22; 29 subjects scanned, 4 not evaluable
MCL-1 = test: Western blot protein expression in patient samples; type: in vivo, human; settings: 2 and 4 hours of treatment vs pretreatment, P<0.0001
bcl-2 = test: Western blot protein expression in patient samples; type: in vivo, human; settings: 2 and 4 hours of treatment vs pretreatment
CLL cells = settings: pre-clinical; cited from earlier work
[2] = Plasma pharmacokinetics after 2-hr IV infusion; settings: for AUC / Cmax / half-life: human, plasma, intravenous; for AUC / Cmax: Mean

CCc1cnn2c(NCc3ccc[n+]([O-])c3)cc(N3CCCC[C@H]3CCO)nc12 [Dinaciclib]
No (%) of Responders ([1]; 14 mg/mg/m^2 dosing during treatment, 35 pts): 22 (63) No (%)
response rate ([1]; 21 patients without del(17)(p13.1)): 57%
response rate ([1]; 25 patients with del(17)(p13.1)): 56%
95% confidence interval of response rate ([1]; 35 patients at phase 2 dose of 14 mg/m^2): 47–79%
No (%) of Responders ([1]; Total, 52 pts): 28 (54) No (%)
overall response to therapy ([1]; all 52 patients, IWCLL 2008 partial responses): 54%
complete responses ([1]; all patients): no complete responses
patients off therapy for progression of disease ([1]; all patients): 27%
median progression free survival ([1]; all patients, Kaplan-Meier estimate): 481 days
median time to response (range) ([1]; all responders): 85 (27–244) days
response rate ([1]; bulky disease): 52%
No (%) of Responders ([1]; dose level 5 mg/m^2, 4 pts): 1 (25) No (%)
No (%) of Responders ([1]; dose level 10 mg/m^2, 3 pts): 2 (67) No (%)
No (%) of Responders ([1]; dose level 14 mg/m^2, 16 pts): 11 (69) No (%)
No (%) of Responders ([1]; dose level 17 mg/m^2, 4 pts): 1 (25) No (%)
No (%) of Responders ([1]; dose level 10→14 mg/m^2, 6 pts): 4 (67) No (%)
response rate ([1]; non-bulky (< 5 cm nodes) disease): 71%
response rate ([1]; prior flavopiridol exposure): 38%
response rate ([1]; recommended phase II dose (14 mg/m^2) at the final dose, 35 patients): 63%
PET non-responders (tumor FDG uptake (SUV)): 10
PET responders (30% or more decrease in SUV) (tumor FDG uptake (SUV)): 15
MCL-1 protein expression (MCL-1): significantly reduced expression
BCL2 protein level (bcl-2): no significant change
therapeutic efficacy against CLL cells as compared to flavopiridol (CLL cells): improved therapeutic efficacy
CL, Mean ([2]; Day 1, 5 mg/m^2): 26.2 L/hr/m2
Vd, Mean ([2]; Day 1, 5 mg/m^2): 92.8 L/m2
CL, Mean ([2]; Day 1, 7 mg/m^2): 17.3 L/hr/m2
Vd, Mean ([2]; Day 1, 7 mg/m^2): 66.2 L/m2
CL, Mean ([2]; Day 1, 10 mg/m^2): 19.9 L/hr/m2
Vd, Mean ([2]; Day 1, 10 mg/m^2): 81.8 L/m2
CL, Mean ([2]; Day 1, 14 mg/m^2): 18.1 L/hr/m2
Vd, Mean ([2]; Day 1, 14 mg/m^2): 74.4 L/m2
CL, Mean ([2]; Day 1, 17 mg/m^2): 13.2 L/hr/m2
Vd, Mean ([2]; Day 1, 17 mg/m^2): 55.9 L/m2
CL, Mean ([2]; Day 15, 5 mg/m^2): 16.1 L/hr/m2
Vd, Mean ([2]; Day 15, 5 mg/m^2): 60.3 L/m2
CL, Mean ([2]; Day 15, 7 mg/m^2): 23.8 L/hr/m2
Vd, Mean ([2]; Day 15, 7 mg/m^2): 79.5 L/m2
CL, Mean ([2]; Day 15, 10 mg/m^2): 16.8 L/hr/m2
Vd, Mean ([2]; Day 15, 10 mg/m^2): 68.4 L/m2
CL, Mean ([2]; Day 15, 14 mg/m^2): 17 L/hr/m2
Vd, Mean ([2]; Day 15, 14 mg/m^2): 71.4 L/m2
CL, Mean ([2]; Day 15, 17 mg/m^2): 13.8 L/hr/m2
Vd, Mean ([2]; Day 15, 17 mg/m^2): 58.9 L/m2
increases in exposure (Cmax and AUC) ([2]; at 17 mg/m^2): greater than dose-proportional
AUC ([2]; 5 mg/m2, AUC(I), Day 1, 5 mg/m^2): 191 ng·h/mL
AUC ([2]; 5 mg/m2, AUC(I), Day 15, 5 mg/m^2): 310 ng·h/mL
Cmax ([2]; 5 mg/m2, Cmax, Day 1, 5 mg/m^2): 95.4 ng/mL
Cmax ([2]; 5 mg/m2, Cmax, Day 15, 5 mg/m^2): 150 ng/mL
half-life ([2]; 5 mg/m2, T1/2, Mean, Day 1, 5 mg/m^2): 2.45 h
half-life ([2]; 5 mg/m2, T1/2, Mean, Day 15, 5 mg/m^2): 2.5 h
AUC ([2]; 7 mg/m2, AUC(I), Day 1, 7 mg/m^2): 403 ng·h/mL
AUC ([2]; 7 mg/m2, AUC(I), Day 15, 7 mg/m^2): 294 ng·h/mL
Cmax ([2]; 7 mg/m2, Cmax, Day 15, 7 mg/m^2): 157 ng/mL
half-life ([2]; 7 mg/m2, T1/2, Mean, Day 15, 7 mg/m^2): 2.31 h
AUC ([2]; 10 mg/m2, AUC(I), Day 1, 10 mg/m^2): 501 ng·h/mL
AUC ([2]; 10 mg/m2, AUC(I), Day 15, 10 mg/m^2): 592 ng·h/mL
Cmax ([2]; 10 mg/m2, Cmax, Day 1, 10 mg/m^2): 277 ng/mL
Cmax ([2]; 10 mg/m2, Cmax, Day 15, 10 mg/m^2): 299 ng/mL
half-life ([2]; 10 mg/m2, T1/2, Mean, Day 1, 10 mg/m^2): 2.85 h
half-life ([2]; 10 mg/m2, T1/2, Mean, Day 15, 10 mg/m^2): 2.82 h
AUC ([2]; 14 mg/m2, AUC(I), Day 1, 14 mg/m^2): 775 ng·h/mL
AUC ([2]; 14 mg/m2, AUC(I), Day 15, 14 mg/m^2): 827 ng·h/mL
Cmax ([2]; 14 mg/m2, Cmax, Day 1, 14 mg/m^2): 404 ng/mL
Cmax ([2]; 14 mg/m2, Cmax, Day 15, 14 mg/m^2): 428 ng/mL
half-life ([2]; 14 mg/m2, T1/2, Mean, Day 1, 14 mg/m^2): 2.85 h
AUC ([2]; 17 mg/m2, AUC(I), Day 1, 17 mg/m^2): 1290 ng·h/mL
AUC ([2]; 17 mg/m2, AUC(I), Day 15, 17 mg/m^2): 1260 ng·h/mL
Cmax ([2]; 17 mg/m2, Cmax, Day 1, 17 mg/m^2): 624 ng/mL
Cmax ([2]; 17 mg/m2, Cmax, Day 15, 17 mg/m^2): 634 ng/mL
half-life ([2]; 17 mg/m2, T1/2, Mean, Day 15, 17 mg/m^2): 2.95 h
accumulation in plasma ([2]; weekly 2-hour IV infusion): did not accumulate

From publication PMC4551390 (Leukemia, 2015)
